From patent US10905735B2 (priority 2016, dated 2021)
Like-named read-outs stand apart in the source and are kept apart here. Bridge positions count the residues as written; N and C are the ends. Peptide text beside a SMILES is read from it.

Columns and labels:
[1] = system: production of the toxins of Staphylococcus aureus 04018 strain (MDBK cells readout); type: cell-based; details: for Cell survival (%) / inhibitory effect on the production of the toxins of Staphylococcus aureus (in words): MDBK cells; for MDBK cell OD (M ± SD): OD 595 nm, MTT; for inhibitory effect on the production of the toxins of Staphylococcus aureus (in words): peptide in normal saline (MRK as suspension)
Description: For the determination method for inhibitory level on the toxins of Staphylococcus aureus, please refer to literatures. (Yang G, et al. A novel peptide screened by phage display can mimic TRAP antigen epitope against Staphylococcus aureus infections. J Biol. Chem. 2005, 280: 27431-27435), details are as follows:
1) Staphylococcus aureus strain 04018 frozen in refrigerator is scribbed to a blood plate or BHI plate; cultured in an incubator for 16 hours until monoclonal colony is observed in the plate, and placed in a 4° C. refrigerator for standby use.
2) After 8 hours, the monoclonal colony in the plate is randomly selected, 25 mL test tubes of the BHI medium is inoculated with the monoclonal colony; and then the two test tubes are shook in a shaking table at a temperature of 37° C. at a speed of 200 rpm, the bacteria are collected after 16 hours, the bacteria solution in the two test tubes are mixed evenly for standby use.
3) The chemosynthetic peptide MRK and MRG and the positive control (the toxins of Staphylococcus aureus inhibitor protein TP) are dissolved in normal saline, diluted to different concentrations, and added to bacteria BHI medium. The final concentrations of small peptides are 0, 1.5, 5, 15, 50, 150 and 500 μg/mL respectively. The solvent control is the same amount of normal saline; the negative control is the BHI medium of Staphylococcus aureus; and a normal cell control is also provided.
4) The chemosynthetic peptides of different concentrations are co-incubated with Staphylococcus aureus 04018 and cultured for 6 hours, and then bacteria are collected. 700 μL bacterial suspensions are added to EP tubes, centrifuged at 8000 rpm for 5 min, supernatants are obtained, boiled at a temperature of 100° C. for 7 min, and centrifuged at a speed of 14000 rpm for 10 min. 10 μL supernatants are taken, added into a 96-microwell cell culture plate inoculated with 1×10<5>/mL MDBK cells. After continuous culture for 18-20 hours, 5 μL MTT solution (5 mg/mL) is added to each microwell, 100 μL 10% SDS+0.01M HCl solution is added to each microwell after 3 hours. After culture in the incubator at a temperature of 37° C. for 20 hours, detection at 595 nm and reading are carried out by an enzyme-linked immunometricmeter.

[2] = system: Staphylococcus aureus Newman strain; details: 5 mg/kg body weight, injected 30 minutes after infection; versus aseptic water control; one week
Description: 1) Preparation of Staphylococcus aureus Newman Solution
Newman monoclonal strain with hemolytic circles is selected, 3 mL BHI medium is inoculated with the strain, and the strain is shook overlight at a speed of 220 rpm and a temperature of 37° C.
1 mL overnight strain is centrifuged at a speed of 5000 rpm for 2 min, and the supernatant is removed.
20 mL aseptic PBS is added for resuspension at a speed of 5000 rpm for 5 min, and the supernatant is removed.
5 mL aseptic PBS resuspended bacteria is diluted to OD600=0.
2) Establishment of Model of Bacteremia and Determination of Polypeptide Activity in BALB/c Mice
BALB/c mice (female, 8 weeks) are subjected to intraperitoneal injection of anesthetic (1% pentobarbital) (200 μL for each mouse).
Newman solution (OD600=0.2, 100 μL for each mouse) is injected into retrobulbar venous plexus.
After 30 minutes of infection, 6 mice are injected with polypeptide at enterocoelia (0.5 mg/mL, 200 μL for each mouse) and 7 mice in control are injected with sterile water (200 μL for each mouse).
The times of the mouse in one week are recorded and used for drawing survival curves.

Compound	Cell survival (%) ([1]; 0.005 mg/mL peptide)	MDBK cell OD (M ± SD) ([1]; 0.005 mg/mL peptide)	Cell survival (%) ([1]; 0.05 mg/mL peptide)	MDBK cell OD (M ± SD) ([1]; 0.05 mg/mL peptide)	Cell survival (%) ([1]; 0.15 mg/mL peptide)	MDBK cell OD (M ± SD) ([1]; 0.15 mg/mL peptide)	inhibitory effect on the production of the toxins of Staphylococcus aureus (in words) [1]	solubility [µg/mL]	death / survival rate in bacteremia (in words) [2]	inhibitory effect on toxin production compared with TP protein (positive control) ([1]; 5 μg/mL small peptide)
NC(=O)CC[C@@H]1NC(=O)[C@@H](N)CSSC[C@@H](C(=O)O)NC(=O)[C@H](Cc2ccc(O)cc2)NC(=O)[C@H](Cc2c[nH]c3ccccc23)NC(=O)[C@H](Cc2c[nH]cn2)NC(=O)[C@H](Cc2c[nH]c3ccccc23)NC(=O)[C@H](Cc2c[nH]c3ccccc23)NC(=O)[C@H](Cc2c[nH]cn2)NC1=O [MRK, CQHWWHWYC] (H-CQHWWHWYC-OH; disulfide 1-9)	25	0.123 ± 0.011	20	0.098 ± 0.014	35	0.171 ± 0.001	could not inhibit the production of the toxins	< 100	good inhibitory effect on Staphylococcus aureus infection in vivo	
CH3(CH2)10CO-Gly-Cyclo(Cys-Gln-His-D-Trp-Trp-His-Trp-Tyr-Cys)-Arg-Arg-Arg-NH2 [MRG]	60	0.296 ± 0.001	92	0.454 ± 0.015	96	0.473 ± 0.004	obvious protective effect on the proliferation inhibition of MDBK cells		survival rate is greatly improved	greater than that of TP protein
